Legend:
S1P1 (EDG-1) = target: T1, S1P1 (EDG-1) (Homo sapiens, UniProt P21453); experiment: GPCR activation assay measuring GTP [γ-35S] binding to membranes from CHO cells expressing human EDG receptors (S1P1); format: biochemical; conditions: CHO cell membranes expressing human EDG-1, read-out: S1P-1 EC50
T1 construct: c-myc (N); expressed in transfected cells; homogenized membranes
Description: A.1 In Vitro: GPCR Activation Assay Measuring GTP [γ-^35S] Binding to Membranes Prepared From CHO Cells Expressing Human EDG Receptors
S1P1 (EDG-1) GTP [γ-^35S] binding assay: Homogenized membranes are prepared from CHO cell clones stably expressing a human EDG-1 N-terminal c-myc tag. Cells are grown in suspension in two 850 cm^2 roller bottles for three or fours days before harvesting. The cells are centrifuged down, washed once with cold PBS, and resuspended in ≦20 ml of Buffer A (20 mM HEPES, pH 7.4, 10 mM EDTA, EDTA-free complete protease inhibitor cocktail [1 tablet/25 ml]). The cell suspension is homogenized on ice, using a Polytron homogenizer at 30000 rpm at three intervals of 15 seconds each. The homogenate is first centrifuged at 2000 rpm on a tabletop low speed centrifuge for 10 minutes. The supernatant, after passing through a cell strainer, is then re-centrifuged at 50,000×g for 25 minutes at 4° C. The pellet is resuspended into buffer B (15% glycerol, 20 mM HEPES, pH 7.4, 0.1 mM EDTA, EDTA-free complete protease inhibitor cocktail [1 tablet/10 ml]). Protein concentration of the preparation is determined using the BCA Protein Assay kit (Pierce) using BSA as standard. The membranes are aliquoted and kept frozen at −80° C.
Solutions of test compounds ranging from 10 mM to 0.01 nM are prepared in DMSO. S1P is diluted in 4% BSA solution as positive controls. The desired amount of membrane preparation is diluted with ice-cold assay buffer (20 mM HEPES, pH 7.4, 100 mM NaCl, 10 mM MgCl2, 0.1% Fatty acid-free BSA, 5 μM GDP) and vortexed well. 2 μl or less of compound is distributed into each well of a round-bottom 96-well polystyrene assay plate, followed by addition of 100 μl of diluted membranes (3-10 μg/well) and kept on ice until the addition of hot GTPγS. [^35S]-GTPγS is diluted 1:1000 (v/v) with cold assay buffer and 100 μl is added into each well. The reaction is carried out at room temperature for 90 minutes before the membranes are harvested onto Perkin-Elmer Unifilter® GF/B-96 filter plate using a Packard Filtermate Harvester. After several washes with wash buffer (20 mM HEPES, pH 7.4, 100 mM NaCl, 10 mM MgCl2), and a rinse with 95% ethanol, the filter is dried in a 37° C. oven for 30 minutes. MicroScint-20 is added and the plate sealed for scintillation counting on TopCount. EC50 values are obtained by fitting the GTP [γ-^35S] binding curves (raw data) with the dose response curve-fitting tool of GraphPad Prism. Six or twelve different concentrations are used to generate a concentration response curve (using three data points per concentration).

S1P-3 = target: T2, S1P-3 (Homo sapiens, UniProt Q99500); experiment: FLIPR calcium flux assay, S1P-3; format: cell-based; conditions: CHO cells expressing S1P receptor
T2 construct: expressed in transfected cells; host or cells: CHO cells under G418 selection
T2 sequence (Q99500 whole entry): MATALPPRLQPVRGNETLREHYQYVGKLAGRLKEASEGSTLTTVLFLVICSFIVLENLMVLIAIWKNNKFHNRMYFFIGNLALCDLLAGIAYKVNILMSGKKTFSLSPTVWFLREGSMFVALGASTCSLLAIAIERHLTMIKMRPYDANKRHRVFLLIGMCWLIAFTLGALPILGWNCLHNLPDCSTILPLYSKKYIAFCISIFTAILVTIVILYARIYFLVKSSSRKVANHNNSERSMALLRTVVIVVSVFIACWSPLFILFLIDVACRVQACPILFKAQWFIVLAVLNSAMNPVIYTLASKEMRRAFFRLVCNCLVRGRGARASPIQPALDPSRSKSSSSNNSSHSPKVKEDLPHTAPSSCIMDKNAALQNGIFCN
Description: (§1) Compounds of the invention are tested for agonist activity on S1P1, S1P3, S1P5, and […] with a FLIPR calcium flux assay. Briefly, CHO cells expressing an S1P receptor are maintained in F-12K medium (ATCC), containing 5% FBS, with 500 ug/ml of G418. Prior to the assay, the cells are plated in 384 black clear bottom plates at the density of 10,000 cells/well/25 ? l in the medium of F-12K containing 1% FBS. The second day, the cells are washed three times (25 μl/each) with washing buffer. About 25 μl of dye are added to each well and incubated for 1 hour at 37° C. and 5% CO2. The cells are then washed four times with washing buffer (25 μl/each). The calcium flux is assayed after adding 25 μl of SEW2871 (published by Rosen et al., used as reference) solution to each well of cells. The same assay is performed with cells expressing each of the different S1P receptors. Titration in the FLIPR calcium flux assay is recorded over a 3-minute interval, and quantitated as maximal peak height percentage response relative to S1P-1 activation. The compounds of the invention are active in this assay at a concentration of from 10^−12 and 3.10^−[…]. For example example 13 as an EC50 92 nm for S1P-1 and an EC50>1 um for all the other isoforms (S1P-2, S1P-3, S1P-4, S1P-5).

S1P-5 = target: T3, S1P-5 (Homo sapiens, UniProt Q9H228); experiment: FLIPR calcium flux assay, S1P-5; format: cell-based; conditions: CHO cells expressing S1P receptor
T3 construct: expressed in transfected cells; host or cells: CHO cells under G418 selection
T3 sequence (Q9H228 whole entry): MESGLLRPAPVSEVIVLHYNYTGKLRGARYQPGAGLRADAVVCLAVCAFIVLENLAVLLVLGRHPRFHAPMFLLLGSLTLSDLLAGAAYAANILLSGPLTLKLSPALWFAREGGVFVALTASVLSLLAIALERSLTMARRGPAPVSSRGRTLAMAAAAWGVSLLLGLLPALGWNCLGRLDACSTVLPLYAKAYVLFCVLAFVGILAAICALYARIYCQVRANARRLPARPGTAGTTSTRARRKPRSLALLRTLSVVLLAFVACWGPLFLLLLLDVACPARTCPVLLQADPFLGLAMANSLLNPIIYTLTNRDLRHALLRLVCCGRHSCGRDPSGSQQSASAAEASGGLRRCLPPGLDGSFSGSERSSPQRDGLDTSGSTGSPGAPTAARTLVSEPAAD
Description: as §1

S1P-4 = target: T4, S1P-4 (Homo sapiens, UniProt O95977); experiment: FLIPR calcium flux assay, S1P-4; format: cell-based; conditions: CHO cells expressing S1P receptor
T4 construct: expressed in transfected cells; host or cells: CHO cells under G418 selection
T4 sequence (O95977 1-384): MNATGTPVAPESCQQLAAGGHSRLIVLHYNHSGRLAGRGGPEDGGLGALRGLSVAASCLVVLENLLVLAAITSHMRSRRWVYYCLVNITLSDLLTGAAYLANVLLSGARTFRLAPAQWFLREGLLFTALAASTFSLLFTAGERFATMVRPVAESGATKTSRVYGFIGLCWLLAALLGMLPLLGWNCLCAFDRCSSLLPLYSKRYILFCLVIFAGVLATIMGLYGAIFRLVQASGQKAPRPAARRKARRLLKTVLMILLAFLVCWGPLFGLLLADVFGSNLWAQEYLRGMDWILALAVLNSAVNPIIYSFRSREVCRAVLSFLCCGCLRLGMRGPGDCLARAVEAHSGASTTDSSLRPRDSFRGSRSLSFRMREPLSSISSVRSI
Description: as §1

S1P-2 = target: T5, S1P-2 (Homo sapiens, UniProt O95136); experiment: FLIPR calcium flux assay, S1P-2; format: cell-based; conditions: CHO cells expressing S1P receptor
T5 construct: expressed in transfected cells; host or cells: CHO cells under G418 selection
T5 sequence (O95136 whole entry): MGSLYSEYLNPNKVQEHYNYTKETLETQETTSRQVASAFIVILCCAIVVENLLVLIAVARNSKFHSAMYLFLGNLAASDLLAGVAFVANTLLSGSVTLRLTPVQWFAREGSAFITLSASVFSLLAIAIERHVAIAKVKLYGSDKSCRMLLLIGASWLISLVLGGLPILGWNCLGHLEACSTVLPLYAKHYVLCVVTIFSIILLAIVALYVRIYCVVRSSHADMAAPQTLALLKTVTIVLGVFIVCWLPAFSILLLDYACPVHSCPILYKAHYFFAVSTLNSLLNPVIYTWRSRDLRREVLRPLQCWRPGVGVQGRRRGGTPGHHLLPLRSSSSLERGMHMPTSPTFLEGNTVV
Description: as §1

S1P-1 = target: T6, S1P-1 (Homo sapiens, UniProt P21453); experiment: FLIPR calcium flux assay, S1P-1; format: cell-based; conditions: CHO cells expressing S1P receptor
T6 construct: expressed in transfected cells; host or cells: CHO cells under G418 selection
T6 sequence (P21453 whole entry): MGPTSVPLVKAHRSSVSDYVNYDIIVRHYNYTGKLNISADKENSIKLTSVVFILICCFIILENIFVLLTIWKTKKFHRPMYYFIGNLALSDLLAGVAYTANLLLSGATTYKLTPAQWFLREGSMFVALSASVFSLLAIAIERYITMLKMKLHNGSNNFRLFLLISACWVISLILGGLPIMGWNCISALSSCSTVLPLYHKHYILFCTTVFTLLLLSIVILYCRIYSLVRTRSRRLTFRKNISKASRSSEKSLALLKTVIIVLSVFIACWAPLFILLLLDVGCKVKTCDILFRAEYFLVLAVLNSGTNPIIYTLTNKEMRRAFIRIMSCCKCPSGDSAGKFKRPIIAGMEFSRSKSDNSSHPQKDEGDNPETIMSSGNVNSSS
Description: as §1

T1 sequence (P21453 whole entry): as above

| SMILES | EC50 (S1P1 (EDG-1)) [nM] | further results |
| --- | --- | --- |
| Cc1cc([C@H]2CCCN2)ccc1NC(=O)c1cc2ccc(OC(C)C)c(OC(C)C)c2oc1=O [Example 82] | 2.4 |  |
| CCCc1c(OC)ccc2cc(C(=O)Nc3ccc(C4CCCN4C)cc3)c(=O)oc12 (racemic) [Example 13] |  | EC50 (S1P-3): > 1000 nM; EC50 (S1P-5): > 1000 nM; EC50 (S1P-4): > 1000 nM; EC50 (S1P-2): > 1000 nM; EC50 (S1P-1): 92 nM |
| CCc1c(OC)ccc2cc(C(=O)Nc3ccc([C@H]4CCCN4)cc3C)c(=O)oc12 [Example 62] | 0.5 |  |
| COc1ccc2cc(C(=O)Nc3ccc(C4CCCCN4)cc3)c(=O)oc2c1OC(C)C (single isomer, unassigned) [Example 23] | 75.5 |  |
| COc1ccc2cc(C(=O)Nc3cccc([C@H]4COCCN4)c3)c(=O)oc2c1OC(C)C [Example 96] | 2.8 |  |
| CCOc1ccc2cc(C(=O)Nc3ccc([C@H]4CCCN4)cc3F)c(=O)oc2c1OCC [Example 89] | 12.8 |  |
| COc1ccc2cc(C(=O)Nc3ccc([C@H]4COCCN4)c(C)c3)c(=O)oc2c1OC(C)C [Example 90] | 6.2 |  |
| CCOc1c(OC)ccc2cc(C(=O)Nc3ccc(C4CNCCN4)cc3)c(=O)oc12 (single isomer, unassigned) [Example 53] | 4.6 |  |
| COc1ccc2cc(C(=O)Nc3ccc(C4CNCCO4)cc3)c(=O)oc2c1OC(C)C (single isomer, unassigned) [Example 41] | 2.9 |  |
| CCOc1c(OC)ccc2cc(C(=O)Nc3ccc([C@H]4CCCN4)cc3)c(=O)oc12 [Example 8] | 7.5 |  |

The next lines start with results.

| EC50 (S1P1 (EDG-1)) [nM] | SMILES | further results |
| --- | --- | --- |
| 0.2 | CCCc1c(OC)ccc2cc(C(=O)Nc3ccc([C@H]4COCCN4)cc3)c(=O)oc12 [Example 27] |  |
| 1.8 | COc1ccc2cc(C(=O)Nc3ccc([C@H]4CCCN4)c(F)c3)c(=O)oc2c1C [Example 72] |  |
| 0.1 | CCCc1c(OC)ccc2cc(C(=O)Nc3ccc(C4CNCCN4)cc3)c(=O)oc12 (racemic) [Example 43] |  |
| 0.1 | CCCc1c(OC)ccc2cc(C(=O)Nc3ccc(C4CCCN4)cc3)c(=O)oc12 (stereo not shown) [Example 1, 7-Methoxy-2-oxo-8-propyl-2H-chromene-3-carboxylic acid (4-pyrrolidin-2-yl-phenyl)-amide] |  |
| 0.2 | CCc1c(OC)ccc2cc(C(=O)Nc3ccc(C4CNCCN4)cc3)c(=O)oc12 (single isomer, unassigned) [Example 44] |  |

— US20100144729A1, “COUMARIN DERIVATIVES” (priority 2007, published 2010)
